Assays:
[1] = test system: FL1^+ cells; test: effect of exogenous lactate addition on FL1+ cells; assay type: cell-based, human; conditions: exogeneous lactate along 10 days
Procedure: A: Levels of metabolite (LAC: lactate, PYR: pyruvate, GLUC: glucose) for FL1^+ and FL1^0 cells; B & C: Effect of lactate addition (LAC) on FL1^+ cell morphology by phase contrast imaging (B) and on the percentage of FL1^0 cells (C). Non treated (NT); Scale bar: […]. D: Level of active Lactate Deshydrogenase (LD expressed in UI/L) in purified-FL1^+ and -FL1^0 cells.

[2] = test system: FL1^+ cells (glioma-initiating cells, gliomasphere cultures); test: in vitro recurrence assay (treatment then recovery), viable FL1+ cells by FACS; assay type: cell-based, human; conditions: for rating as anti-CSC agent: in vitro recurrence assay criteria; for number of viable FL1^+ cells: temsirolimus (1 μM elsewhere in the source), 5 μM cyclopamine, 5 μM DAPT; for killing of FL1^+ cells: 5 μM, exposure along 20 days; for killing of FL1^+ cell population by inhibition of mitochondrial complex: FIG. 6, 5 μM
Excerpt: In contrast to other methods, which preferentially use cancer cell lines and stem cell marker like CD133 as a read-out of stemness, the Applicants' technology relies on primary cell cultures derived from human specimen and on a simple and unbiased detection of CICs independently of the use of any marker. Thus Applicants took advantage of such methodology to design and develop an in vitro recurrence assay to screen and validate potential therapeutic agents for eradicating cancer stem cells in glioma. […] The novelties here reside on the read-out of stemness used for testing the efficiency of any drug and on the possibility to identify specific anti-CSC agent.
Basically, any agent or inhibitor would be considered as an efficient anti-CSC agent if it fulfils the following criteria:
• 1) a viability of GICs (FL1^+ cells) decreases for more than 50% during the exposure to said agent or inhibitor during a maximum of 20 days, • 2) a recovery of GICs (FL1^+ cells) is less than 0.2 fold during the recovery phase of a maximum of 20 days, and • 3) the viability of normal brain cells is sustainable and recoverable during and after the exposure to the said agent or inhibitor.
a) Providing a cancer stem cell sample;
b) Treating the cancer stem cell sample provided under (a) with an agent;
c) Incubating the treated stem cell sample in a stem cell culture medium for an incubation period without treatment;
d) Selecting the viable cell population from the stem cell sample incubated under step (c); […]

[3] = test system: primary GBM-2 cells; test: in vivo tumorigenicity of cells pretreated in vitro with inhibitors; parameters: species or system mice; conditions: GBM-2 cells treated 10 days in vitro prior implantation; for histological analyses for tumours: 17 weeks post-implantation; for state of mice implanted with pretreated cells: up to 17 weeks post-implantation
Excerpt: Control mice had symptoms 4 weeks post-implantation and were sacrificed. […] Experiment was stopped 17 weeks post-implantation.

[4] = test system: normal brain cells
Procedure: (§1) To test the specificity of such inhibitor towards CICs, normal brains cells and primary glioma cells (FBS cultures) were exposed to the above mentioned mitochondrial agents for 10 days.
(§2) For short term/dose response (48 hrs): Dissociated gliomasphere cells, adherent glioma and normal cells were plated at 10 cell/μl in DMEM-F12 Glutamax, BIT20% or B27 (1/50), Hepes 30 mM, Penicillin/streptomycin 1/1000, with reduced mitogens at 1 ng/ml or with reduced level of serum (2.5%).
(§3) For long term treatment/recovery assay (T10 and/or T20): Dissociated gliomasphere cells, adherent glioma and normal cells were plated at 2 cell/μl in DMEM-F12 Glutamax, Hepes 30 mM, BIT20% or B27 (1/50), Penicillin/streptomycin 1/1000, with reduced mitogens at 1 ng/ml or with reduced level of serum (2.5%).
(§4) For the recovery, cells were harvested, washed with PBS1x, and placed back into their standard media.

[5] = test system: primary glioma cells (FBS cultures)
Procedure: as §1, §2, §3, §4

CC(O)C(=O)O (centres unmarked) [lactate]
effect on FL1^+ cell morphology [1]: induce cell adhesion
effect on cell phenotype (FL1^0 cells) [1]: commits cells towards the FL1^0 phenotype

C[C@H](NC(=O)Cc1cc(F)cc(F)c1)C(=O)N[C@H](C(=O)OC(C)(C)C)c1ccccc1 [DAPT, N—[N-(3,5-Difluorophenacetyl-L-alanyl)]-S-phenylglycine t-Butyl Ester]
rating as anti-CSC agent [2]: inefficient
number of viable FL1^+ cells [2]: decrease of the number of viable FL1^+ cells

Cn1nnc2c(C(N)=O)ncn2c1=O [temozolomide, Temozolomide]
viability at 25 µM ([2]; Homo sapiens, 480 h, temozolomide 25 μM, up to 20 days treatment, read-out: FL1^+ cells still viable after treatment): > 30%

C=C(C)[C@H]1Cc2c(ccc3c2O[C@@H]2COc4cc(OC)c(OC)cc4[C@@H]2C3=O)O1 [Rotenone]
killing of FL1^+ cells [2]: kills all FL1^+ cell
killing of FL1^+ cell population by inhibition of mitochondrial complex [2]: kills the FL1^+ cell population
histological analyses for tumours [3]: no visible tumours
state of mice implanted with pretreated cells [3]: alive without symptoms

CCCCCC[C@H]1C(=O)O[C@H](C)[C@H](NC(=O)c2cccc(NC=O)c2O)C(=O)O[C@@H](C)[C@@H]1OC(=O)CC(C)C [Antimycin A]
effect on normal brain cells ([4]; FIG. 6): does not really affect the viability of normal brain cells
viability of normal brain cells ([4]; exposure for 10 days): allows normal brain cells to survive

CO[C@H]1C[C@@H]2CC[C@@H](C)[C@@](O)(O2)C(=O)C(=O)N2CCCC[C@H]2C(=O)O[C@H]([C@H](C)C[C@@H]2CC[C@@H](OC(=O)C(C)(CO)CO)[C@H](OC)C2)CC(=O)[C@H](C)/C=C(\C)[C@@H](O)[C@@H](OC)C(=O)[C@H](C)C[C@H](C)/C=C/C=C/C=C/1C [temsirolimus, Temsirolimus]
rating as anti-CSC agent [2]: inefficient
number of viable FL1^+ cells [2]: decrease of the number of viable FL1^+ cells

Oligomycin A/B
killing of FL1^+ cells [2]: kills all FL1^+ cell
killing of FL1^+ cell population by inhibition of mitochondrial complex [2]: kills the FL1^+ cell population
effect on glioma cells ([5]; FIG. 6): eradicate any kind of brain cells including normal and glioma ones
viability of primary glioma cells ([5]; exposure for 10 days, FBS cultures): sensitive

CC1=C2C[C@H]3[C@@H](CC=C4C[C@@H](O)CC[C@@]43C)[C@@H]2CC[C@]12O[C@@H]1C[C@H](C)CN[C@H]1[C@H]2C [cyclopamine, Cyclopamine]
rating as anti-CSC agent [2]: inefficient

C#Cc1cccc(Nc2ncnc3cc(OCCOC)c(OCCOC)cc23)c1 [Erlotinib]
time in which gliomasphere cultures recover from the treatment ([2]; all gliomasphere cultures, long term treatment, Erlotinib 5 μM): ≤ 10 days
GBM in which cell death is induced in more than 50% of FL1^+ cells ([2]; long term treatment, Erlotinib 5 μM): 2/6

CN(C)CCCN1c2ccccc2CCc2ccc(Cl)cc21 [Anafranil, Clomipramine]
killing of FL1^+ cells [2]: kills all FL1^+ cell
histological analyses for tumours [3]: no visible tumours
state of mice implanted with pretreated cells [3]: alive without symptoms
